Assay results: ChEMBL document CHEMBL1147252, “New bromotyrosine derivatives from an association of two sponges, Jaspis wondoensis and Poecillastra wondoensis” (2003)
Values after ≈ are worked out from the molar mass of the structure shown.

Experiments:
Type in all cases: functional
Staphylococcus aureus [1] = experiment: Antibacterial activity against methicillin-resistant Staphylococcus aureus Y-80-12-844 after 18 hrs
Staphylococcus aureus [2] = experiment: Antibacterial activity against methicillin-resistant Staphylococcus aureus Y-80-12-1999 after 18 hrs
[3] = test system: Staphylococcus epidermidis; experiment: Antibacterial activity against ofloxacin-resistant Staphylococcus epidermidis 291 after 18 hrs
Staphylococcus aureus [4] = experiment: Antibacterial activity against methicillin-resistant Staphylococcus aureus KIST1 after 18 hrs
[5] = test system: Staphylococcus epidermidis; experiment: Antibacterial activity against ofloxacin-resistant Staphylococcus epidermidis 178 after 18 hrs
Staphylococcus aureus [6] = experiment: Antibacterial activity against methicillin-resistant Staphylococcus aureus KIST4 after 18 hrs
Staphylococcus aureus [7] = experiment: Antibacterial activity against methicillin-resistant Staphylococcus aureus 003 after 18 hrs
Staphylococcus aureus [8] = experiment: Antibacterial activity against methicillin-resistant Staphylococcus aureus KIST2 after 18 hrs
Staphylococcus aureus [9] = experiment: Antibacterial activity against methicillin-resistant Staphylococcus aureus Y-80-12-1109 after 18 hrs
Staphylococcus aureus [10] = experiment: Antibacterial activity against methicillin-resistant Staphylococcus aureus KIST3 after 18 hrs
Staphylococcus aureus [11] = experiment: Antibacterial activity against methicillin-resistant Staphylococcus aureus 004 after 18 hrs
A549 = experiment: Cytotoxicity against human A549 cells; conditions: read-out: ED50 (the source's name)
SK-MEL-2 = experiment: Cytotoxicity against human SK-MEL-2 cells; conditions: read-out: ED50 (the source's name)
HCT-15 = experiment: Cytotoxicity against human HCT15 cells; conditions: read-out: ED50 (the source's name)
SK-OV-3 = experiment: Cytotoxicity against human SKOV3 cells; conditions: read-out: ED50 (the source's name)
XF498 = experiment: Cytotoxicity against human XF498 cells; conditions: read-out: ED50 (the source's name)

| SMILES | MIC (Staphylococcus aureus [1]) [µg/mL] | MIC (Staphylococcus aureus [2]) [µg/mL] | MIC [3] [µg/mL] | MIC (Staphylococcus aureus [4]) [µg/mL] | MIC [5] [µg/mL] | MIC (Staphylococcus aureus [6]) [µg/mL] | MIC (Staphylococcus aureus [7]) [µg/mL] | MIC (Staphylococcus aureus [8]) [µg/mL] | MIC (Staphylococcus aureus [9]) [µg/mL] | MIC (Staphylococcus aureus [10]) [µg/mL] | MIC (Staphylococcus aureus [11]) [µg/mL] | EC50 (A549) [µg/mL] | EC50 (SK-MEL-2) [µg/mL] | EC50 (HCT-15) [µg/mL] | EC50 (SK-OV-3) [µg/mL] | EC50 (XF498) [µg/mL] |
| --- | --- | --- | --- | --- | --- | --- | --- | --- | --- | --- | --- | --- | --- | --- | --- | --- |
| O=C(NCCSSSCCNC(=O)/C(Cc1ccc(O)c(Br)c1)=N/O)/C(Cc1ccc(O)c(Br)c1)=N/O | 25 (≈ 35.9 µM) | 6.3 (≈ 9.05 µM) | 0.8 (≈ 1.15 µM) | 3.1 (≈ 4.45 µM) | 0.8 (≈ 1.15 µM) | 3.1 (≈ 4.45 µM) | 3.1 (≈ 4.45 µM) | 3.1 (≈ 4.45 µM) | 6.3 (≈ 9.05 µM) | 6.3 (≈ 9.05 µM) | 3.1 (≈ 4.45 µM) |  |  |  |  |  |
| O=C(NCCSSCCNC(=O)/C(Cc1cc(Br)c(O)c(Br)c1)=N/O)/C(Cc1ccc(O)c(Br)c1)=N/O | 25 (≈ 33.6 µM) | 12.5 (≈ 16.8 µM) | 3.2 (≈ 4.31 µM) | 12.5 (≈ 16.8 µM) | 3.2 (≈ 4.31 µM) | 12.5 (≈ 16.8 µM) | 12.5 (≈ 16.8 µM) | 12.5 (≈ 16.8 µM) | 12.5 (≈ 16.8 µM) | 12.5 (≈ 16.8 µM) | 12.5 (≈ 16.8 µM) | 1.34 (≈ 1.8 µM) | 0.9 (≈ 1.21 µM) | 3.31 (≈ 4.45 µM) | 1.38 (≈ 1.86 µM) | 0.92 (≈ 1.24 µM) |
| O=C(NCCSSCCNC(=O)/C(Cc1cc(Br)c(O)c(-c2cc(C/C(=N\O)C(=O)NCCSSCCNC(=O)/C(Cc3ccc(O)c(Br)c3)=N/O)cc(Br)c2O)c1)=N/O)/C(Cc1ccc(O)c(Br)c1)=N/O [BISAPRASIN] | 25 (≈ 18.8 µM) | 50 (≈ 37.7 µM) | 12.5 (≈ 9.42 µM) | 12.5 (≈ 9.42 µM) | 6.3 (≈ 4.75 µM) | 6.3 (≈ 4.75 µM) | 12.5 (≈ 9.42 µM) | 6.3 (≈ 4.75 µM) | 50 (≈ 37.7 µM) | 6.3 (≈ 4.75 µM) | 6.3 (≈ 4.75 µM) | 3.4 (≈ 2.56 µM) | 2.94 (≈ 2.22 µM) | 6 (≈ 4.52 µM) | 2.78 (≈ 2.1 µM) | 2.44 (≈ 1.84 µM) |
| O=C(NCCSSCCNC(=O)/C(Cc1ccc(Oc2cc(C/C(=N\O)C(=O)NCCSSCCNC(=O)/C(Cc3ccc(O)c(Br)c3)=N/O)cc(Br)c2O)c(Br)c1)=N/O)/C(Cc1ccc(O)c(Br)c1)=N/O [BISPSAMMAPLIN A] | > 50 | > 50 | > 50 | > 50 | > 50 | > 50 | > 50 | > 50 | > 50 | > 50 | > 50 | 1.53 (≈ 1.15 µM) | 1.02 (≈ 0.769 µM) | 3.35 (≈ 2.52 µM) | 1.52 (≈ 1.15 µM) | 1.1 (≈ 0.829 µM) |
| COc1cccc2c1C(=O)c1c(O)c3c(c(O)c1C2=O)C[C@@](O)(C(=O)CO)C[C@@H]3O[C@H]1C[C@H](N)[C@H](O)[C@H](C)O1 [DOXORUBICIN] |  |  |  |  |  |  |  |  |  |  |  | 0.04 (≈ 0.0736 µM) | 0.03 (≈ 0.0552 µM) | 0.09 (≈ 0.166 µM) | 0.15 (≈ 0.276 µM) | 0.1 (≈ 0.184 µM) |
| C[C@@H](O)[C@H]1C(=O)N2C(C(=O)O)=C(S[C@@H]3CN[C@H](C(=O)N(C)C)C3)[C@H](C)[C@H]12 [MEROPENEM] | 50 (≈ 130 µM) | 50 (≈ 130 µM) | 1.6 (≈ 4.17 µM) | 25 (≈ 65.2 µM) | 0.8 (≈ 2.09 µM) | 50 (≈ 130 µM) | 3.1 (≈ 8.08 µM) | 3.1 (≈ 8.08 µM) | 50 (≈ 130 µM) | 50 (≈ 130 µM) | 3.1 (≈ 8.08 µM) |  |  |  |  |  |
| O=C(NCCSSCCNC(=O)/C(Cc1ccc(O)c(Br)c1)=N/O)/C(Cc1ccc(O)c(Br)c1)=N/O [PSAMMAPLIN A] |  |  |  |  |  |  |  |  |  |  |  | 0.57 (≈ 0.858 µM) | 0.13 (≈ 0.196 µM) | 0.68 (≈ 1.02 µM) | 0.14 (≈ 0.211 µM) | 0.57 (≈ 0.858 µM) |
| COC(=O)NCCSSCCNC(=O)/C(Cc1ccc(O)c(Br)c1)=N/O [PSAMMAPLIN D] | > 25 | > 25 | > 25 | > 25 | > 25 | > 25 | > 25 | > 25 | > 25 | > 25 | > 25 | 0.8 (≈ 1.72 µM) | 0.2 (≈ 0.429 µM) | 1.23 (≈ 2.64 µM) | 0.17 (≈ 0.365 µM) | 0.6 (≈ 1.29 µM) |
